Experimental data reported in the NIST ThermoML archive (doi:10.1016/j.jct.2018.08.013).
Several values for one entry are separate records, joined by “and”; a condition that tells them apart may be missing. Equal entries are not always repeated.

What was measured:
[1] = xn = mol fraction of the nth substance listed; details: 298 K; 100 kPa; Crystal of intercomponent compound 1; X-ray diffraction; x2 = 0.501
[2] = specific heat capacity at constant pressure; xn = mol fraction of the nth substance listed; details: 100 kPa, Crystal of intercomponent compound 1, x2 = 0.501

[Se] [selenium] + [Ga]
Details	mass density [kg/m3]
[1]	4995

[2]
Details	specific heat capacity
16.15 K, relaxation calorimetry	11.99 J/K/kg
16.17 K, relaxation calorimetry	12 J/K/kg
18.16 K, relaxation calorimetry	16.65 J/K/kg and 16.64 J/K/kg
18.18 K, relaxation calorimetry	16.69 J/K/kg
20.17 K, relaxation calorimetry	21.87 J/K/kg
20.18 K, relaxation calorimetry	21.87 J/K/kg
20.19 K, relaxation calorimetry	21.91 J/K/kg
22.2 K, relaxation calorimetry	27.43 J/K/kg and 27.5 J/K/kg
22.21 K, relaxation calorimetry	27.42 J/K/kg
24.22 K, relaxation calorimetry	33.32 J/K/kg and 33.29 J/K/kg
24.23 K, relaxation calorimetry	33.28 J/K/kg
26.23 K, relaxation calorimetry	39.37 J/K/kg and 39.38 J/K/kg
26.24 K, relaxation calorimetry	39.4 J/K/kg
28.25 K, relaxation calorimetry	45.37 J/K/kg and 45.38 J/K/kg and 45.39 J/K/kg
30.27 K, relaxation calorimetry	51.28 J/K/kg and 51.24 J/K/kg
30.28 K, relaxation calorimetry	51.39 J/K/kg
35.31 K, relaxation calorimetry	66.34 J/K/kg and 66.36 J/K/kg and 66.53 J/K/kg
40.35 K, relaxation calorimetry	80.84 J/K/kg and 80.98 J/K/kg and 81.11 J/K/kg
45.38 K, relaxation calorimetry	95.31 J/K/kg
45.39 K, relaxation calorimetry	94.97 J/K/kg
45.4 K, relaxation calorimetry	95.04 J/K/kg
50.4 K, relaxation calorimetry	109.56 J/K/kg
50.42 K, relaxation calorimetry	108.96 J/K/kg
50.44 K, relaxation calorimetry	108.89 J/K/kg
55.43 K, relaxation calorimetry	122.81 J/K/kg
55.45 K, relaxation calorimetry	122.01 J/K/kg
55.49 K, relaxation calorimetry	122.14 J/K/kg
60.46 K, relaxation calorimetry	135.73 J/K/kg
60.49 K, relaxation calorimetry	134.99 J/K/kg
60.52 K, relaxation calorimetry	134.92 J/K/kg
65.48 K, relaxation calorimetry	148.37 J/K/kg
65.53 K, relaxation calorimetry	147.43 J/K/kg
65.58 K, relaxation calorimetry	147.3 J/K/kg
70.5 K, relaxation calorimetry	160.95 J/K/kg
70.57 K, relaxation calorimetry	159.6 J/K/kg
70.63 K, relaxation calorimetry	159.47 J/K/kg
75.53 K, relaxation calorimetry	172.38 J/K/kg
75.61 K, relaxation calorimetry	170.97 J/K/kg
75.66 K, relaxation calorimetry	170.77 J/K/kg
80.55 K, relaxation calorimetry	184.09 J/K/kg
80.66 K, relaxation calorimetry	182.27 J/K/kg
80.7 K, relaxation calorimetry	182.34 J/K/kg
85.57 K, relaxation calorimetry	194.78 J/K/kg
85.7 K, relaxation calorimetry	192.56 J/K/kg
85.74 K, relaxation calorimetry	192.9 J/K/kg
90.59 K, relaxation calorimetry	204.73 J/K/kg
90.72 K, relaxation calorimetry	202.45 J/K/kg
90.78 K, relaxation calorimetry	202.18 J/K/kg
95.61 K, relaxation calorimetry	213.21 J/K/kg
95.73 K, relaxation calorimetry	211.33 J/K/kg
95.82 K, relaxation calorimetry	210.32 J/K/kg
100.79 K, relaxation calorimetry	218.86 J/K/kg and 218.59 J/K/kg
100.93 K, relaxation calorimetry	219.87 J/K/kg
105.73 K, relaxation calorimetry	227.87 J/K/kg
105.8 K, relaxation calorimetry	226.59 J/K/kg
105.86 K, relaxation calorimetry	225.85 J/K/kg
113.65 K, relaxation calorimetry	238.83 J/K/kg
113.74 K, relaxation calorimetry	237.36 J/K/kg
113.8 K, relaxation calorimetry	236.08 J/K/kg
121.58 K, relaxation calorimetry	248.59 J/K/kg
121.67 K, relaxation calorimetry	246.97 J/K/kg
121.74 K, relaxation calorimetry	245.83 J/K/kg
129.51 K, relaxation calorimetry	257.33 J/K/kg
129.61 K, relaxation calorimetry	255.45 J/K/kg
129.66 K, relaxation calorimetry	254.51 J/K/kg
137.44 K, relaxation calorimetry	264.59 J/K/kg
137.56 K, relaxation calorimetry	262.58 J/K/kg and 263.32 J/K/kg
145.45 K, relaxation calorimetry	269.91 J/K/kg
145.46 K, relaxation calorimetry	268.03 J/K/kg
145.47 K, relaxation calorimetry	269.1 J/K/kg
153.32 K, relaxation calorimetry	274.68 J/K/kg
153.34 K, relaxation calorimetry	275.63 J/K/kg
153.36 K, relaxation calorimetry	275.49 J/K/kg
161.23 K, relaxation calorimetry	282.15 J/K/kg
161.3 K, relaxation calorimetry	279.06 J/K/kg
161.31 K, relaxation calorimetry	280.6 J/K/kg
169.16 K, relaxation calorimetry	286.18 J/K/kg
169.22 K, relaxation calorimetry	285.24 J/K/kg and 284.23 J/K/kg
177.11 K, relaxation calorimetry	290.02 J/K/kg
177.12 K, relaxation calorimetry	289.62 J/K/kg and 289.08 J/K/kg
185.02 K, relaxation calorimetry	293.18 J/K/kg
185.03 K, relaxation calorimetry	293.58 J/K/kg
185.05 K, relaxation calorimetry	293.38 J/K/kg
192.93 K, relaxation calorimetry	296.41 J/K/kg
192.95 K, relaxation calorimetry	296.68 J/K/kg
192.96 K, relaxation calorimetry	296.81 J/K/kg
200.83 K, relaxation calorimetry	299.5 J/K/kg
200.86 K, relaxation calorimetry	299.77 J/K/kg
200.88 K, relaxation calorimetry	299.7 J/K/kg
208.74 K, relaxation calorimetry	302.93 J/K/kg
208.76 K, relaxation calorimetry	303 J/K/kg
208.8 K, relaxation calorimetry	302.6 J/K/kg
216.62 K, relaxation calorimetry	305.29 J/K/kg
216.66 K, relaxation calorimetry	304.88 J/K/kg
216.71 K, relaxation calorimetry	304.61 J/K/kg
224.53 K, relaxation calorimetry	308.38 J/K/kg
224.58 K, relaxation calorimetry	307.71 J/K/kg
224.64 K, relaxation calorimetry	307.17 J/K/kg
232.41 K, relaxation calorimetry	310.8 J/K/kg
232.48 K, relaxation calorimetry	309.86 J/K/kg
232.56 K, relaxation calorimetry	309.05 J/K/kg
240.31 K, relaxation calorimetry	311.88 J/K/kg
240.39 K, relaxation calorimetry	310.67 J/K/kg
240.46 K, relaxation calorimetry	310.2 J/K/kg
248.21 K, relaxation calorimetry	312.89 J/K/kg
248.3 K, relaxation calorimetry	312.15 J/K/kg
248.37 K, relaxation calorimetry	311.47 J/K/kg
256.11 K, relaxation calorimetry	314.1 J/K/kg
256.21 K, relaxation calorimetry	313.22 J/K/kg
256.27 K, relaxation calorimetry	312.68 J/K/kg
262.02 K, Extra sensitive DSC	315.04 J/K/kg
264.01 K, relaxation calorimetry	314.5 J/K/kg
264.11 K, relaxation calorimetry	313.9 J/K/kg
264.17 K, relaxation calorimetry	313.42 J/K/kg
265 K, Extra sensitive DSC	315.24 J/K/kg
270 K, Extra sensitive DSC	315.51 J/K/kg
271.91 K, relaxation calorimetry	315.31 J/K/kg
272.02 K, relaxation calorimetry	314.5 J/K/kg
272.07 K, relaxation calorimetry	314.3 J/K/kg
275 K, Extra sensitive DSC	316.52 J/K/kg
279.81 K, relaxation calorimetry	318.13 J/K/kg
279.92 K, relaxation calorimetry	317.12 J/K/kg
279.96 K, relaxation calorimetry	317.06 J/K/kg
280 K, Extra sensitive DSC	317.19 J/K/kg
285 K, Extra sensitive DSC	318.2 J/K/kg
290 K, Extra sensitive DSC	319.21 J/K/kg
295 K, Extra sensitive DSC	319.95 J/K/kg
299.68 K, Extra sensitive DSC	320.55 J/K/kg
307 K, Extra sensitive DSC	321.29 J/K/kg
310 K, Extra sensitive DSC	322.03 J/K/kg
315 K, Extra sensitive DSC	322.3 J/K/kg
320 K, Extra sensitive DSC	322.91 J/K/kg
325 K, Extra sensitive DSC	323.65 J/K/kg
330 K, Extra sensitive DSC	324.52 J/K/kg
335 K, Extra sensitive DSC	325.93 J/K/kg
340 K, Extra sensitive DSC	325.93 J/K/kg
345 K, Extra sensitive DSC	326.94 J/K/kg
350 K, Extra sensitive DSC	328.02 J/K/kg
354.61 K, Extra sensitive DSC	329.03 J/K/kg
358.6 K, Extra sensitive DSC	328.76 J/K/kg
